Reference: PMC10381533, “Inhibitory Effects of the Fungal Pigment Rubiginosin C on Hyphal and Biofilm Formation in Candida albicans and Candida auris” (Journal of Fungi, 2023)
Converted amounts (≈) assume the structure as drawn.

Legend:
C. albicans [DSM 1665] = system: C. albicans [DSM 1665]; parameters: method as in doi:10.1002/ejoc.202001661; conditions: highest tested concentration 250 µg/mL; cited from earlier work
[1] = system: C. albicans CAI-4 HWP1-lacZ [ZK3379]; assay: MIC assay, C. albicans CAI-4 HWP1-lacZ; type: cell-based, Candida albicans; conditions: tested 250–2 µg/mL
Description: (§1) The MICs of rubiginosin- and rutilin-type azaphilones—in detail, Rub A, C, W, Z, and Rut A and B—were determined as described previously using the selected pathogens C. albicans [DSM 11225, DSM 1665], C. albicans CAI-4 HWP1-lacZ [ZK3379] and C. auris [DSM 21092] (see Table S1 for detailed information). All compounds were tested within the concentration range of 250 µg/mL–2 µg/mL for C. albicans [DSM 11225, DSM 1665], C. albicans CAI-4 HWP1-lacZ [ZK3379], C. auris [DSM 21092]. […]
(§2) All compounds were fully dissolved in
(§3) The assay was conducted as a minimum inhibitory concentration (MIC) assay in 96-well round-bottom microtiter plates using the parameters summarized in table S1 and as already described in [2]. Stocks of the test organisms were generated by growing the organisms overnight in 250 mL (Candida albicans [DSM 11225], [DSM 1665], CAI-4 HWP1-lacZ, Candida auris [DSM 21092]) or 50 mL shaking (the rest organisms) flasks filled with 25 mL of the growth medium at 140 rpm (for media and temperatures see table S1). After incubation overnight, the OD of the suspension was measured and adjusted by diluting with the respective growth medium. OD600 nm was adjusted to 0.01 for bacteria and OD600 nm to 0.1 for fungi and 150 μL of the adjusted suspensions were added to all wells of a 96-well microtiter plate (one test organism per plate). Subsequently, additional 130 μL (1 mg/mL tested compounds) or 142.5 μL (10 mg/mL tested compounds ) of suspensions, plus 20 μL (1 mg/mL tested compounds) respectively 7.5 μL (10 mg/mL tested compounds ) of the test compounds were added to first row. C ontrols (one compound/column) were added as well: MeOH were used as solvent control, while different positive controls (reference drugs ) were used for the according test organisms (see table S1). Starting from row A, 150 μL of the suspension were transferred […]
(§4) to the next row, the contents thoroughly mixed, and 150 μL transferred to the following row. The remaining 150 μL after row H were discarded.
(§5) 66.7 μg/mL in row A to 0.52 μg/mL in row H (1 mg/mL tested compounds) or 250 μg/mL in row A to 2 μg/mL in row H (10 mg/mL tested compounds).
(§6) The 96-well microtiter plates were then incubated overnight on a microplate shaker at 800 rpm at 30 or 37 °C (see table S1) and were visually evaluated the next day. The MIC is defined as the lowest concentration where no growth of the test organism was observed. A lower MIC thus corresponds to a higher antimicrobial activity […]
(§7) Table S1: MIC assay experiment parameters.
(§8) Tested organisms Strain No. Growth Incubation Positive control medium temp. [°C ] (reference)
(§9) KB-3-1 (ACC 158) cervix carcinoma as well as L929 (ACC 2) mouse fibroblasts were cultured under standard cell culture conditions (37 °C, 5% CO2, 95% humidified atmosphere). The cells were maintained in high glucose DMEM containing 10% fetal bovine serum and 100 U/mL penicillin and streptomycin (Gibco, Thermo Fisher Scientific, Waltham, USA). Cell lines were serially passaged after trypsinization, using 0.05% trypsin / 0.02% EDTA solution. The cultures were routinely monitored for potential contamination, and only mycoplasma free cultures were used. The test compounds were investigated for their anti-proliferative effect on cell lines, using the 3-(4,5-dimethylthiazol-2-yl)-2,5-diphenyltetrazolium bromide (MTT) based cell viability assay. […]

C. auris [DSM 21092] = assay: MIC assay, C. auris; type: cell-based, Candida auris; conditions: tested 250–2 µg/mL
Description: as §1, §2, §3, §4, §5, §6, §7, §8, §9

C. albicans [DSM 11225] = assay: MIC assay, C. albicans DSM 11225; type: cell-based, Candida albicans; conditions: tested 250–2 µg/mL
Description: as §1, §2, §3, §4, §5, §6, §7, §8, §9

C. auris biofilm = assay: Crystal violet biofilm formation assay, C. auris; type: cell-based, Candida auris; conditions: for effect on formation of C. auris biofilms: CV assay, 24 h treatment
Description: The fungal pathogens C. auris [[…]] or C. albicans [DSM 11225] were cultured from stock in 25 mL YPD medium in a 250 mL flask (30 °C, 100 rpm, 18 h). The turbidity of the broth was measured at 280 nm using a spectrophotometer (Nanodrop 2000c, Thermo Fisher Scientific, Waltham, MA, USA) and diluted to match the turbidity of a 0.5 McFarland standard in RPMI 1640 medium (Gibco, New York, NY, USA; Thermo Fisher Scientific), supplemented with […] 3-(N-morpholino)propanesulfonic acid (MOPS, Carl Roth, Karlsruhe, Germany) for C. auris, or 0.05 McFarland standard in RPMI 1640 medium in the case of C. albicans. Subsequently, 150 μL of the fungal dispersion were added into each well of a 96-well microtiter plate (Falcon no. 351172, Thermo Fisher Scientific) and further incubated (37 °C, 150 rpm, 2 h [C. auris] or 90 min [C. albicans]). The supernatant was discarded and the plate was rinsed one time by using a PBS buffer. Afterwards, azaphilones (Rub A, C, W, Z, and Rut A and B) were serially diluted in 150 μL in fresh medium to concentrations of 250–2 μg/mL (Rub C for C. auris: 250–0.02 μg/mL). Methanol (2.5%) was used as a solvent control and both, nystatin (NYS; Thermo Fisher Scientific) and farnesol (FA; Sigma Aldrich, St. Louis, MO, USA) as positive controls (250–2 μg/mL) for C. auris and C. albicans, respectively. Plates were further incubated (37 °C, 150 rpm, 24 h). The supernatant was discarded and biofilms were washed with PBS, stained by adding 150 μL of the crystal violet (CV; Sigma Aldrich) solution (0.1%), and incubated (room temperature, 25 min). Afterwards, the plates were washed twice with PBS buffer. A total of 150 μL ethanol (95%) were applied to dissolve the biofilm-bound CV. The absorbance was measured by a plate reader (Synergy 2, BioTek, Santa Clara, CA, USA) at 570 nm for C. auris or 610 nm for C. albicans. Error bars indicate SD with duplicates in two biological repeats.

Row | SMILES | MIC (C. albicans [DSM 1665]) | MIC [1] | MIC (C. auris [DSM 21092]) | MIC (C. albicans [DSM 11225]) | effect on formation of C. auris biofilms (C. auris biofilm) | inhibition of C. auris biofilm formation compared to solvent control (= 0%) (C. auris biofilm; 2 µg/mL) | inhibition of C. auris biofilm formation compared to solvent control (= 0%) (C. auris biofilm; 3.9 µg/mL) [%] | inhibition of C. auris biofilm formation compared to solvent control (= 0%) (C. auris biofilm; 7.8 µg/mL) [%] | inhibition of C. auris biofilm formation compared to solvent control (= 0%) (C. auris biofilm; 15.6 µg/mL) [%] | inhibition of C. auris biofilm formation compared to solvent control (= 0%) (C. auris biofilm; 31.3 µg/mL) [%] | inhibition of C. auris biofilm formation compared to solvent control (= 0%) (C. auris biofilm; 62.5 µg/mL) [%] | inhibition of C. auris biofilm formation compared to solvent control (= 0%) (C. auris biofilm; 125 µg/mL) [%] | inhibition of C. auris biofilm formation compared to solvent control (= 0%) (C. auris biofilm; 250 µg/mL) [%]
1 | CC(=O)OC/C=C/C1=CC2=C(CO1)C(=O)[C@@](C)(OC(=O)c1c(C)cc(O)cc1O)C(=O)/C2=C\C=C\C1=CC2=C(CO1)C(=O)[C@@](C)(OC(=O)c1c(C)cc(O)cc1O)[C@@H](O)C2 [Rut B, rutilin B] | no antimicrobial activity | no antimicrobial activity | no antimicrobial activity | no antimicrobial activity | did not affect the formation | – | – | – | – | – | – | – | –
2 | CC(=O)OC/C=C/C1=CC2=C(CO1)C(=O)[C@@](C)(OC(=O)c1c(C)cc(O)cc1O)C(=O)/C2=C\C=C\C1=CC2=C(CO1)C(=O)[C@@](C)(O)[C@@H](OC(=O)c1c(C)cc(O)cc1O)C2 [Rut A, rutilin A] | no antimicrobial activity | no antimicrobial activity | no antimicrobial activity | no antimicrobial activity | did not affect the formation | – | – | – | – | – | – | – | –
3 | C[C@@H]1[C@H](O)[C@@H](C)/C=C/C=C/CC/C=C/C=C/C=C/C=C/C(O[C@H]2O[C@H](C)[C@@H](O)[C@H](N)[C@@H]2O)CC2O[C@](O)(CC(O)C(O)CCC(O)CC(O)CC(O)CC(=O)O[C@H]1C)CC(O)C2C(=O)O (stereo partly shown) [Nystatin, nystatin] | 8.3 µg/mL (≈ 8.96 µM) | 8.3 µg/mL (≈ 8.96 µM) | 31.3 µg/mL (≈ 33.8 µM) | 8.3 µg/mL (≈ 8.96 µM) | – | / ((/) no activity) | 60 ±10 | 42 ±15 | 47 ±2 | 50 ±10 | 53 ±8 | 45 ±10 | 56 ±2
